In ChEMBL document CHEMBL1121498, “Conformationally restricted phenothiazine neuroleptics. 1. 3-(Dimethylamino)-1,2,3,4-tetrahydroazepino[3,2,1-kl]phenothiazine” (J Med Chem, 1980):

How the values were obtained:
[1] = target: Dopamine receptor; assay: (§1) Compound was tested for inhibition of [3H]spiperone binding in membrane preparations obtained from rat corpus striatum.
[2] = tested on: Rattus norvegicus; assay: Compound was evaluated for its ability to stimulate the synthesis of homovanillic acid (HVA) in rat in vivo; type: functional
[3] = target: Dopamine receptor (Bos taurus, UniProt Q95136+P20288)
[4] = organism: Rattus norvegicus; assay: Percentage increase in rat corpus striatal HVA synthesis; type: functional
[5] = Compound was tested for inhibition of [3H]spiperone binding in membrane preparations obtained from calf caudate.; set-up: species or system Bos taurus
[6] = organism: Rattus norvegicus; assay: as §1; type: functional

Row | IC50 [1] [nM] | IC50 [3] [nM] | SMILES | ED50 [2] [µmol/kg] | Increase [4] [%] | IC50 [5] [nM] | IC50 [6] [nM]
1 | 1040 | 130 | CN(C)CCCN1c2ccccc2Sc2ccccc21 [PROMAZINE] | 200 | 250 | – | –
2 | – | – | CN(C)C1CCN2c3ccccc3Sc3cccc(c32)C1 (configuration not stated) | – | 24 | 2400 | 2150
